Reference: paper PMC2803762 (Molecules, 2008)

Tested on: pig liver esterase (PLE; EC 3.1.1.1)
Test: release of p-nitroaniline at […] nm, saturation curve
Type: biochemical, Sus scrofa
Details: PBS pH 7.7, 10% v/v DMSO, 25 °C, PLE 0.25 μg/mL, substrate 0.5-33 μM

Km: 14 µM
Structure (SMILES): CC(=O)Oc1cc(C)cc(C)c1C(C)(C)CC(=O)Nc1ccc([N+](=O)[O-])cc1 [compound 1, prochromophore 1]
